Source: US12559474B2, “Triazine derivatives having virus replication inhibitory activity and pharmaceutical composition comprising the same” (priority 2021, dated 2026)
Read-outs that look alike come from different tables or passages of the source.

How the values were obtained:
[1] = molecular target: SARS-CoV-2 3CL protease (Severe acute respiratory syndrome coronavirus 2, UniProt P0DTD1); experiment: biochemical; conditions: 50% SARS-CoV-2 3CL protease inhibitory concentration, read-out: IC50
[2] = system: SARS-CoV-2; experiment: microbe, parasite or virus in culture; type: cell-based; conditions: 50% SARS-CoV-2 infected cell death inhibitory concentration, VeroE6/TMPRSS2 cells, 3 days culture
[3] = Severe acute respiratory syndrome coronavirus 2, VeroE6/TMPRSS2, 72 h, class symbols
[4] = Severe acute respiratory syndrome coronavirus 2, VeroE6/TMPRSS2, 72 h, CellTiter-Glo 2.0

Compound | IC50 ([1]; given as class symbols) | EC50 [2, 3] | IC50 ([1]; RapidFire MS) | EC50 [2, 4] | EC50 ([2]; class symbols)
Cn1cc2cc(Nc3nc(=O)n(Cc4cc(Cl)c[nH]c4=O)c(=O)n3Cc3cc(F)c(F)c(F)c3)c(Cl)cc2n1 [Compound I-0077] | < 0.1 µM | < 1 µM | – | – | –
CNc1nc2cc(Cl)c(Nc3nc(=O)n(Cc4ccc[nH]c4=O)c(=O)n3Cc3cc(F)c(F)c(F)c3)cc2s1 [Compound I-0467] | < 0.1 µM | 1 to 10 µM | – | – | –
CNc1nc2cc(F)c(Nc3nc(=O)n(-c4cncc(C)c4)c(=O)n3Cc3cc(F)c(F)c(F)c3)cc2s1 [II-0291] | < 0.1 µM | 1 to 10 µM | – | – | –
N#Cc1cc(F)cc(Cn2c(Nc3cc4c(cc3Cl)OCC4)nc(=O)n(Cc3ccc[nH]c3=O)c2=O)c1 [II-0029] | < 0.1 µM | 1 to 10 µM | – | – | –
Cc1cncc(-n2c(=O)nc(Nc3cc4cn(CC(F)F)nc4cc3Cl)n(Cc3cc(F)c(F)c(F)c3)c2=O)c1 [II-0090] | – | – | 0.016 µM | 0.355 µM | –
Cc1cncc(-n2c(=O)nc(Nc3cc4cn(C)nc4cc3Cl)n(Cc3cc(C#N)ccc3C)c2=O)c1 [II-0596] | – | – | 0.0016 µM | 0.062 µM | –
O=c1[nH]cccc1Cn1c(=O)nc(Nc2cc3cn(CCOC(F)(F)F)nc3cc2Cl)n(Cc2cc(F)c(F)c(F)c2)c1=O [Compound I-0381] | < 0.1 µM | 1 to 10 µM | – | – | –
COc1ccc(Nc2nc(=O)n(-c3cnnc(C)c3)c(=O)n2Cc2cc(F)c(F)c(F)c2)cc1 [II-0394] | – | – | 3.9 µM | 44.9 µM | –
Cc1cncc(-n2c(=O)nc(Nc3cc4cn(C)nc4cc3Cl)n(Cc3cc(Cl)cc(Cl)c3)c2=O)c1 [II-0205] | < 0.1 µM | 1 to 10 µM | – | – | –
Cc1cc(F)c(C#N)cc1Cn1c(Nc2cc3cn(C)nc3cc2Cl)nc(=O)n(-c2cncc(N)c2)c1=O [II-0380] | < 0.1 µM | 1 to 10 µM | – | – | –
Cc1cncc(-n2c(=O)nc(Nc3cc4cn(C)nc4cc3Cl)n(Cc3cc(Cl)c(F)cn3)c2=O)c1 [II-0541] | < 0.1 µM | < 1 µM | – | – | –
Cn1cc2cc(Nc3nc(=O)n(-c4cncc(Cl)c4)c(=O)n3Cc3cc(C#N)ccc3Cl)ccc2n1 [II-0523] | – | – | 0.011 µM | 0.24 µM | –
Cc1cncc(-n2c(=O)nc(N3CCC(C)(C)CC3)n(Cc3cc(F)c(F)c(F)c3)c2=O)c1 [II-0222] | < 0.1 µM | < 1 µM | – | – | –
Cn1cc2cc(Nc3nc(=O)n(Cc4cn(C)c(=O)[nH]c4=O)c(=O)n3Cc3cc(F)c(F)c(F)c3)c(Cl)cc2n1 [Compound I-0111] | < 0.1 µM | 1 to 10 µM | – | – | –
COc1cc(Cl)c(Nc2nc(=O)n(Cc3ccc[nH]c3=O)c(=O)n2Cc2cc(F)c(F)c(F)c2)c(Cl)c1 [Compound I-0437] | < 0.1 µM | 1 to 10 µM | – | – | –
COc1ccc(Nc2nc(=O)n(Cc3ccc[nH]c3=O)c(=O)n2Cc2cc(Cl)ccc2F)cc1 [Compound I-0231] | < 0.1 µM | 1 to 10 µM | – | – | –
C/C=C/c1cc(F)c(F)cc1Cn1c(Nc2cc3cn(C)nc3cc2Cl)nc(=O)n(-c2cncc(C)c2)c1=O [II-0066] | < 0.1 µM | 1 to 10 µM | – | – | –
Cc1cncc(-n2c(=O)nc(Nc3ccc4nn(C)cc4c3)n(Cc3cc(C#N)ccc3Cl)c2=O)c1 [II-0422] | – | – | 0.0064 µM | 0.29 µM | –
CNc1nc2cc(Cl)c(Nc3nc(=O)n(-c4cncc(C)c4)c(=O)n3Cc3cc(C#N)ccc3C)cc2s1 [II-0395] | < 0.1 µM | < 1 µM | – | – | –
Cn1cnc(Cn2c(=O)nc(Nc3cc4cn(C)nc4cc3Cl)n(Cc3cc(F)cc(F)c3)c2=O)n1 [II-0207] | < 0.1 µM | 1 to 10 µM | – | – | –
Cc1cncc(-n2c(=O)nc(Nc3cc4c(cc3Cl)OC(C)C4)n(Cc3ccc(F)c(C#N)c3)c2=O)c1 (stereo not shown) [II-0121] | < 0.1 µM | – | – | – | < 1 µM
CNc1nc2cc(Cl)c(Nc3nc(=O)n(Cc4ncccn4)c(=O)n3Cc3cc(F)c(F)c(Cl)c3)cc2s1 [II-0297] | < 0.1 µM | 1 to 10 µM | – | – | –
Cc1cncc(-n2c(=O)nc(Nc3cc4cn(C)nc4cc3Cl)n(Cc3cc(F)c(F)c(Cl)c3)c2=O)c1 [II-0119] | – | – | 0.0089 µM | 0.183 µM | –
Cc1cncc(-n2c(=O)nc(Nc3cc4cn(C)nc4cc3Cl)n(Cc3cc(F)c(F)cc3Br)c2=O)c1 [II-0404] | < 0.1 µM | < 1 µM | – | – | –
Cc1cncc(-n2c(=O)nc(Nc3cc4oc(C)nc4cc3F)n(Cc3ccc(F)c(C#N)c3)c2=O)c1 [II-0107] | < 0.1 µM | 1 to 10 µM | – | – | –
Cc1nc2cc(Cl)c(Nc3nc(=O)n(Cc4ncn(C)n4)c(=O)n3Cc3cc(F)c(F)cc3F)cc2s1 [II-0287] | < 0.1 µM | 1 to 10 µM | – | – | –
Cn1cnc(Cn2c(=O)nc(Nc3cc4sc(NC5CC5)nc4cc3Cl)n(Cc3cc(F)c(F)cc3F)c2=O)n1 [II-0306] | – | – | 0.0051 µM | 0.41 µM | –
CCn1cc2cc(Nc3nc(=O)n(-c4cncc(C)c4)c(=O)n3Cc3ccc(F)c(C#N)c3)c(Cl)cc2n1 [II-0118] | – | – | 0.0045 µM | 0.121 µM | –
Cn1cnc(Cn2c(=O)nc(Nc3cc4c(C(F)(F)F)n(C)nc4cc3Cl)n(Cc3cc(F)c(F)cc3F)c2=O)n1 [II-0468] | < 0.1 µM | 1 to 10 µM | – | – | –
